Assay results: US7807882B2, “Herbicide-resistant sunflower plants, polynucleotides encoding herbicide-resistant acetohydroxyacid synthase large subunit proteins, and methods of use” (priority 2004, dated 2010)

Experiments:
Test in all cases: Field trial, sulfonylurea tolerance (herbicide injury ratings), Balcarce
Format in all cases: in vivo, Helianthus annuus
[1] = test system: HA89 (wild-type) sunflower line; conditions: No injury = 0
Excerpt: (§1) To evaluate the tolerance of MUT28 sunflower plants to sulfonylurea herbicides, HA89 (wild-type), MUT28, IMISUN-1, and SURES-1 sunflower lines were planted outdoors in Balcarce, Argentina during the growing season in an RCBD field trial with two replications to evaluate the tolerance of MUT28 plants to the sulfonylurea herbicide thifensulfuron (TFS) at 1× and 2× rates. The 1× rates for TFS is 4.4 g a.i./ha.

SURES-1 sunflower line = conditions: line SURES-1, No injury = 0
Excerpt: as §1

IMISUN-1 sunflower line = conditions: line IMISUN-1, No injury = 0
Excerpt: as §1

MUT28 sunflower line = conditions: No injury = 0
Excerpt: as §1

Question: What does the source list for `COc1nc(C)nc(NC(=O)NS(=O)(=O)c2ccsc2C(=O)O)n1` [thifensulfuron]?
Answer: Herbicide Injury Ratings ([1]; rate 1× (4.4 g a.i./ha)): 75; Herbicide Injury Ratings ([1]; rate 2× (1× is 4.4 g a.i./ha)): 75; Herbicide Injury Ratings (SURES-1 sunflower line; rate 1× (4.4 g a.i./ha)): 5; Herbicide Injury Ratings (SURES-1 sunflower line; rate 2× (1× is 4.4 g a.i./ha)): 3; Herbicide Injury Ratings (IMISUN-1 sunflower line; rate 1× (4.4 g a.i./ha)): 20; Herbicide Injury Ratings (IMISUN-1 sunflower line; rate 2× (1× is 4.4 g a.i./ha)): 75; Herbicide Injury Ratings (MUT28 sunflower line; rate 1× (4.4 g a.i./ha)): 30; Herbicide Injury Ratings (MUT28 sunflower line; rate 2× (1× is 4.4 g a.i./ha)): 42
